Experimental data reported in patent US20160243136A1, “PHARMACEUTICAL FORMULATIONS CONTAINING MITOCHONDRIALLY TARGETED ANTIOXIDANTS” (Mitotech SA, priority 2013, published 2016).

Tested on: Wistar rats with acute pancreatitis
Test: Arginine-induced acute pancreatitis model
Assay type: in vivo, rat
Details: for MPO activity in pancreatic tissue homogenates: control 52.9, intact 6.1
Protocol: Kidney homogenates for MPO determination were centrifuged at 20000 g 15 min, the pellets were resuspended in 50 mM K-phosphate buffer containing 0.5% CTAB. Resulted samples were frozen and thawed three times and then centrifuged at 10600 g 10 min. Supernatants were analyzed for MPO activity in chromogenic reaction with o-phenylenediamine (OPD). 100 μl sample was mixed with 100 μl substrate buffer (25 mM Na-citrate, 50 mM Na-phosphate, 0.45 mg/ml OPD, 0.1% H2O2, pH 5.0) and was incubated 15 min at room temperature and then OD was detected at 492 nm.
42 Wistar rats (age: 20-25 week, weight 400 g-750 g) were distributed among 4 experiemntal groups with the same average weight. SkQ1 was administered with drinking water with an estimated dosage of 250 nmoles/kg/day or 50 nmoles/kg/day. Acute pancreatitis was induced by a single intraperitoneal (ip) injection of arginine (100 mg/100 g of animal weight; 20% arginine solution in about 2.5 ml phosphate buffer).
The experimental groups were: (1) Intact (n=10); (2) Control (n=10) treated with arginine ip injection; (3) SkQ250-SkQ1 pretreatment with 250 nmoles/kg/day dosage for 9 days; IP injection of arginine on day 9, continuation of SkQ1 treatment for 24 hr (n=10); and (4) SkQ50-SkQ1 pretreatment with 50 nmoles/kg/day dosage for 9 days. IP injection of arginine on day 9, continuation of SkQ1 treatment for 24 hr (n=10).
The activity of pancreatic myeloperoxidase (MPO) was also measured as described in Example 1 (for kidney tissue).
Samples of pancreas were fixed in 10% formalin and then prepared for eosin-hematoxylin staining of 5 μm-6 μm slices using standard techniques. Stained samples (slices) were examined under light microscopy.
The intensity of inflammation in the samples was measured by a standard ascending scale score from 0 to 3. The average score of inflammation in rats without SkQ treatment was 1.5.

CC1=C(C)C(=O)C(CCCCCCCCCC[P+](c2ccccc2)(c2ccccc2)c2ccccc2)=CC1=O [SkQ1, 10-(6-plastoquinonyl)decyl-triphenylphosphonium]
MPO activity in pancreatic tissue homogenates (SkQ50: 50 nmoles/kg/day for 9 days + 24 hr): 50.0
Average inflammation score (pancreas histology, scale 0 to 3) (SkQ50: 50 nmoles/kg/day, untreated pancreatitis 1.5): 1.5
MPO activity in pancreatic tissue homogenates (SkQ250: 250 nmoles/kg/day for 9 days + 24 hr): 15.8
weight of the pancreas (edema) (both dosages (250 and 50 nmoles/kg/day in drinking water)): prevented an increase
